Laboratory results published in US20220365099A1, “DERIVATIZATION OF BETA-LACTAM ANTIBIOTICS FOR MASSSPEC MEASUREMENTS IN PATIENT SAMPLES” (Roche Diagnostics Operations, Inc., priority 2019, published 2022).

Assay: Stability in water at room temperature, LC-MS/MS peak areas over 16 h
Format: physicochemical
Details: 5 μg/ml in water, timepoints 0, 2, 4, 6, 8 and 16 h
Description: The stability of native Piperacillin as well as its hydrolyzed forms was investigated (compounds 5, 9a and 9b, respectively. From the hydrolyzation pathway of Piperacillin (see schematic drawing in FIG. 1) it is obvious that this compound hydrolyzed both on the piperazin ring and the lactam moiety, only one of both compounds is monitored to account for the loss of native Piperacillin). To this end, these compounds were freshly weighed and dissolved in water at a concentration of 1 mg/mL by rolling for 15 minutes at room temperature. Subsequently, these compounds were diluted to 5 μg/ml and measured with a suitable LC-MS/MS method at timepoints 0, 2, 4, 6, 8 and 16 h. […] The peaks were integrated using MultiQuant software and the areas of these peaks depicted in the graphs in FIGS. 2A and 2B.
The stability of double butylamide variants of Piperacillin (compound 7, see FIG. 4) was investigated at 2 MRMs using the identical protocol as in Examples 1.

## CCN1CCN(C(=O)N[C@@H](C(=O)N[C@@H]2C(=O)N3[C@@H]2SC(C)(C)[C@@H]3C(=O)O)c2ccccc2)C(=O)C1=O [Piperacillin]
  obtained peak-areas over time: decreasing
